Values quoted from earlier work, collected in patent publication US20060211664A1, “Method for treating erectile dysfunction and increasing libido in men” (priority 2002, published 2006).
Where a name gives a salt, the structure may show the parent alone.

What was measured:
[1] = target: sex hormone binding globulin (SHBG) and albumin (Homo sapiens, UniProt P02768); details: in men
[2] = target: T1, sex hormone binding globulin (SHBG) and albumin (Homo sapiens, UniProt P04278); details: in men, high-affinity
T1 sequence (P04278 30-402): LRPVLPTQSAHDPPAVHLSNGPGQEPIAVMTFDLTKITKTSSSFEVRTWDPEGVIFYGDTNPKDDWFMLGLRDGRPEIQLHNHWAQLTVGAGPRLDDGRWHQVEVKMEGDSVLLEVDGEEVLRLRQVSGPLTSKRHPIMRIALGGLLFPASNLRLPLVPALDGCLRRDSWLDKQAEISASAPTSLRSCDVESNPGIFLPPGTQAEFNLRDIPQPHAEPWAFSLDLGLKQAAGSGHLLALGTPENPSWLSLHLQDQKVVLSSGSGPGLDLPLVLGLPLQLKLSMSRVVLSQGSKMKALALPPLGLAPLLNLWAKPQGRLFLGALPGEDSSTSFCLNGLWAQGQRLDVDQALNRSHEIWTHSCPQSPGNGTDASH

[3] = test system: sex hormone binding globulin (SHBG) and albumin; details: blood
[4] = test system: isolated human corpus cavernosum

sex hormone binding globulin (SHBG) and albumin (Homo sapiens, UniProt P02768), sequence (P02768 25-609): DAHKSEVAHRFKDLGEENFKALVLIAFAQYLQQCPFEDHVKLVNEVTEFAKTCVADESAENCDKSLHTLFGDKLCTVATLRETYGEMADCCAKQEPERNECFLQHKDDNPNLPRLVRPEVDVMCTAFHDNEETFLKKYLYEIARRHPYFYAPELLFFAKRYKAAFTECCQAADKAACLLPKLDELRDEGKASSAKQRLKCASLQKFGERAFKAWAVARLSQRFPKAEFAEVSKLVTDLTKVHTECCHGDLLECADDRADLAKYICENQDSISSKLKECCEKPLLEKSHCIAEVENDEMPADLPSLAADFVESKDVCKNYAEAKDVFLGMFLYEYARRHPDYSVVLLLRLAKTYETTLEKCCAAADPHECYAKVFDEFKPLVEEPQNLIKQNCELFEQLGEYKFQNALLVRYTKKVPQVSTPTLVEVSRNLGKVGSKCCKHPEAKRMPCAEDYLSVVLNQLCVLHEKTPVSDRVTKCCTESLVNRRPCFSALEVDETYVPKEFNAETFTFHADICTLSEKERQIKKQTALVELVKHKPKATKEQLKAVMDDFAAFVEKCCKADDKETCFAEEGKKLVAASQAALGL

Row | Compound | share of the binding bound weakly to albumin [1] [%] | share of the binding to sex hormone binding globulin (SHBG) [2] | testosterone in the blood bound to protein [3] [%] | direct relaxant effect on isolated human corpus cavernosum [4]
1 | C[C@]12CC[C@H]3[C@@H](CCC4=CC(=O)CC[C@@]43C)[C@@H]1CC[C@@H]2O [Testosterone, testosterone] | 60 | approximately 40% | 98 | 
2 | CCCc1nn(C)c2c(=O)[nH]c(-c3cc(S(=O)(=O)N4CCN(C)CC4)ccc3OCC)nc12 [VIAGRA®, sildenafil citrate USP] |  |  |  | no direct relaxant effect
